From patent US20240000741A1, “ALL-TRANS RETINOIC ACID ENHANCES RADIOTHERAPY AND OVERCOMES IMMUNE SUPPRESSION FOR CANCER THERAPY” (The University of Chicago, priority 2022, published 2024)

Assays:
Type in all cases: in vivo, mouse
B16 melanoma tumor model = assay: B16 melanoma tumor growth after IR and RA; settings: IR and RA combination compared with single treatments
Description: 1×10^6 MC38, B16/F1, Renca or CT26 cells were subcutaneously implanted into flanks of mice. Tumors were irradiated using a Phillips IR250 orthovoltage X-ray generator (Phillips, Amsterdam, the Netherlands) operating at 250 kV 15 mA. Subcutaneous local tumors were irradiated by shielding bodies with a cylindrical lead cover with only flank tumors exposed for radiation. ATRA (400 μg/mice/day) was administered by oral gavage for 10 days. For the two-tumor model, 1×10^6 and 0.7×10^6 MC38 cells were subcutaneously implanted into the right and left flank of mice respectively. […] Tumors were measured along two diameters (length and width) and depth twice weekly and volumes were calculated as length×width×depth/2. For CD8 and CD4 T cell depletion experiments, 200 μg antibodies were injected i.p. on day 0, 2, 5 and 8 after radiation. Anti-CD11b antibody was injected i.p. every two days starting 1 day before radiation. Anti-PD-L1 antibody was administered i.p. on day 0, 3, and 7 after radiation at 200 μg/mouse. Anti-IFN-γ was administered i.p. at 500 μg/mouse every 7 days. Anti-NK1.1 antibody was administered via i.p. at 25 μg/mouse every 3 days for 3 doses. Anti-GM-CSF antibody was given by i.p. injection at 250 μg/mouse every 2 days. FTY720 was delivered via gavage at 20 μg per dose every day for 7 days. […]

CD11b+CD11c+ cells = assay: Quantitative real-time PCR of cells sorted from tumors
Excerpt: Total RNA from tumor and CD11c+ cells isolated from tumors with a kit sold under the tradename EASYSEP® Mouse CD11c positive selection kit II (STEMCELL Technologies, Vancouver, Canada) was extracted with a kit sold under the tradename QUICK-RNA® Miniprep Plus kit (R1058, Zymo Research, Irvine, California, United States of America). cDNA was synthesized with a High Capacity cDNA Reverse Transcription kit (4368814, Applied Biosystems, Waltham, Massachusetts, United States of America). Real-time PCR was performed with a kit containing fluorescent chemicals sold under the tradename SYBR™ (Molecular Probes, Sunnyvale, California, United States of America), i.e., the SYBR™ Green PCR Master Mix (4309155, Applied Biosystems, Waltham, Massachusetts, United States of America) and results were normalized to β-actin. Primers used: […]
Relative gene expression was calculated using the 2^−ΔΔCT approach.

CT26 tumor = assay: ATRA-sensitized fractionated radiotherapy in CT26 tumor bearing BALB/c mice; settings: 6 fractions
Description: 2×10^6 CT26 cells were subcutaneously injected into the right flanks of BALB/c mice. When the tumors reached 100-120 mm^3 in volume, ATRA in corn oil (400 μg/each) was daily administrated via oral gavage. After administration, mice were anaesthetized with 2% (v/v) isoflurane and the tumors were irradiated daily with X-ray at a dose of 1 Gy/fraction (225 kVp, 13 mA, 0.3 mm-Cu filter) for a total of 6 fractions on six consecutive days. Oil (equal volume/each) was daily administrated with or without irradiation as a control. The tumor size was measured with a caliper every day and the tumor volume calculated as 0.5×length×width 2. All the mice were sacrificed when the tumors reached about 2000 mm^3.

[1] = cells sorted from treated tumors
[2] = radiation and RA treatment compared to controls
[3] = ATRA 400 μg/each oral gavage daily plus X-ray 1 Gy/fraction

CC1=C(/C=C/C(C)=C/C=C/C(C)=C/C(=O)O)C(C)(C)CCC1 [RA, all-trans retinoic acid]
B16 tumor growth (B16 melanoma tumor model): significant benefit | mRNA level of TNF-α in sorted CD11b+CD11c+ cells (CD11b+CD11c+ cells; [1]): increased | mRNA level of iNOS in sorted CD11b+CD11c+ cells (CD11b+CD11c+ cells; [1]): increased | transcription of CXCL9 in CD11c+ cells (CD11b+CD11c+ cells; [2]): increased significantly | transcription of CXCL10 in CD11c+ cells (CD11b+CD11c+ cells; [2]): increased significantly | transcription of CXCL11 in CD11c+ cells (CD11b+CD11c+ cells; [2]): increased significantly | CT26 tumor growth (CT26 tumor; [3]): regressed tumor growth | mice totally free of tumors (CT26 tumor; [3]): 2 out of 5 | body weight (CT26 tumor; ATRA plus X-ray 1 Gy/fraction): No weight loss
